# US20090054392A1, “NAPHTHYLPYRIMIDINE, NAPHTHYLPYRAZINE AND NAPHTHYLPYRIDAZINE ANALOGS AND THEIR USE AS AGONISTS OF THE WNT-BETA-CATENIN CELLULAR MESSAGING SYSTEM” (Wyeth, priority 2007, published 2009)
# Read-outs that look alike come from different tables or passages of the source.
# Tested on: Dkk1-LRP5-TCF-Luciferase
# Assay: Functional Dkk1-LRP5-TCF-Luciferase Assay in U2OS Cells
# Conditions: for fold induction at 2 µM / fold induction at 20 µM / EC50: Homo sapiens, U2OS; for fold induction at 20 µM: read-out: C = TCF ACTIVITY/DMSO CONTROL Fold induction @ 20.0 uM, 20.0 uM compound; for A = MAX FOLD Induction/DMSO CONTROL: maximum fold induction over DMSO control
# [1] = read-out: B = TCF ACTIVITY/DMSO CONTROL Fold induction @ 2.0 uM, 2.0 uM compound
# Protocol: Biological Evaluation—Functional Dkk1-LRP5-TCF-Luciferase Assay in U2OS Cells
# Frozen U2OS-Dkk1-HTS Reporter cells generation: U2OS Human Bone derived cells (Osteosarcoma) are grown in McCoy's 5A Medium (Modified), with L -glutamine (GIBCO Cat No. 16600-082)+1% Pen-Strep+5% FBS) plated at 1×10^7 cells/T175 cm flask. The next day, the cells are co-transfected overnight with the following plasmids: (a) Test reporter (16×TCF-TK-FireFly-Luci), (b) Internal Control Reporter (TK-Renilla-Luci), (c) Wnt3a and (d) Dkk1. GIBCO's Lipofectamine 2000 and OptiMEM are used for the transfection. After a minimum of 4 hr of transfection at 37° C., the plasmid-transfected cells are trypsinized, counted, and suspended in freezing medium (95% FBS+5% DMSO). The reporter cells are frozen at 1×10^7/ml concentrations, aliquoted into 0.5 ml or 2.5 ml/tube and stored at 70° C.
# The following day, test compounds are added under HTS setup by Plate Track into 384 well plates (white, TC treated, Falcon plate) such that the final concentration of the compounds in 20 μL/well cell will be 5 μg/ml (final concentration of DMSO=0.25% and final compound concentration=20 μM). Vials of frozen reporter cells are thawed by warming the vial in a 37° C. water bath for 60-120 seconds with some shaking until the cells formed a suspension. The thawed cells are transferred into a cold 50 ml (or larger) tube and mixed well by gentle pipetting. The appropriate amount of cold Phenol Red Free RPMI medium-1640 (GIBCO, Cat #11835-030) with L-glutamine is added, both with ˜5% FBS (GIBCO-BRL, Cat. #16000-044), so that 20 μl of the final cell suspension will contain ˜5,000 cells. The cell dilution is done such that the final concentration of FBS is ˜5%.
# Diluted cells (20 μl) are added into each well in a 384 well plate. The plate is incubated at 37° C. under 5% CO2 for ˜20 h. Bright-Glo substrate, 2.5 μl/well is added, and the Fire Fly Luciferase is measured using VLUX (60 second exposure) immediately after the substrate is added. Test compounds are dissolved in DMSO (100%) and added to specified wells. Raw luciferase signal data obtained as relative luminescence units (RLUs) for the test compounds are normalized to the signal of the mean of the sample reporter cell plate with DMSO.
EC50 [µM],A = MAX FOLD Induction/DMSO CONTROL [fold],SMILES,fold induction at 2 µM [1],fold induction at 20 µM,fold induction at 2 µM (read-out: B = TCF ACTIVITY/DMSO CONTROL Fold induction @ 2.0 uM)
–,–,CN(C1CCCCC1)[C@H]1CCN(c2nccc(-c3ccc4ccccc4c3)n2)C1 [(3S)—N-cyclohexyl-N-methyl-1-[4-(2-naphthyl)pyrimidin-2-yl]pyrrolidin-3-amine],1.22,0.01,–
–,–,"O=C1N[C@H](C2CCN(c3nccc(-c4ccc5ccccc5c4)n3)CC2)CO1 [(4R)-4-{1-[4-(2-naphthyl)pyrimidin-2-yl]piperidin-4-yl}-1,3-oxazolidin-2-one]",1.4,0.01,–
–,–,"CCN(CC)C(=O)N1CCC(Nc2nccc(-c3ccc4ccccc4c3)n2)CC1 [N,N-diethyl-4-{[4-(2-naphthyl)pyrimidin-2-yl]amino}piperidine-1-carboxamide]",1.65,–,–
3.56,5.193,"CN(C)[C@@H]1CCN(c2nccc(-c3ccc4ccccc4c3)n2)C1 [(3R)—N,N-dimethyl-1-[4-(2-naphthyl)pyrimidin-2-yl]pyrrolidin-3-amine]",2.88,0.065,–
6.88,3.585,O=C1CN([C@H]2CCN(c3nccc(-c4ccc5ccccc5c4)n3)C2)CCN1 [4-{(3S)-1-[4-(2-naphthyl)pyrimidin-2-yl]pyrrolidin-3-yl}piperazin-2-one],1.28,3.16,–
3.89,6.695,CCN(CCO)[C@H]1CCN(c2nccc(-c3ccc4ccccc4c3)n2)C1 [2-(ethyl{(3S)-1-[4-(2-naphthyl)pyrimidin-2-yl]pyrrolidin-3-yl}amino)ethanol],1.42,5.58,–
–,–,"CCN(CC)C(=O)N1CCC(CNc2nccc(-c3ccc4ccccc4c3)n2)CC1 [N,N-diethyl-4-({[4-(2-naphthyl)pyrimidin-2-yl]amino}methyl)piperidine-1-carboxamide]",1.22,1.04,–
0.32,2.050,"NC(=O)N1CCCN(c2nccc(-c3ccc4ccccc4c3)n2)CC1 [4-[4-(2-naphthyl)pyrimidin-2-yl]-1,4-diazepane-1-carboxamide]",1.5,1.79,–
–,–,CN(c1nccc(-c2ccc3ccccc3c2)n1)C1CCN(S(C)(=O)=O)CC1 [N-methyl-N-[1-(methylsulfonyl)piperidin-4-yl]-4-(2-naphthyl)pyrimidin-2-amine],1.24,0.77,–
0.189,2.290,"O=C1CCCN1[C@H]1CCN(c2nccc(-c3ccc4ccccc4c3)n2)C1 [(3′S)-1′-[4-(2-naphthyl)pyrimidin-2-yl]-1,3′-bipyrrolidin-2-one]",3.04,3.62,–
–,–,CCNC(=O)N1CCC(N(C)c2nccc(-c3ccc4ccccc4c3)n2)CC1 [N-ethyl-4-{methyl[4-(2-naphthyl)pyrimidin-2-yl]amino}piperidine-1-carboxamide],1.2,1.45,–
–,–,O=C1CCCN1CC1CCN(c2nccc(-c3ccc4ccccc4c3)n2)CC1 [1-({1-[4-(2-naphthyl)pyrimidin-2-yl]piperidin-4-yl}methyl)pyrrolidin-2-one],1.33,0.81,–
–,–,O=C(c1ccccc1)N1CC(CNc2nccc(-c3ccc4ccccc4c3)n2)C1 [N-[(1-benzoylazetidin-3-yl)methyl]-4-(2-naphthyl)pyrimidin-2-amine],1.5,–,–
–,–,CC(C)Nc1nccc(-c2ccc3ccccc3c2)n1 [N-isopropyl-4-(2-naphthyl)pyrimidin-2-amine],1.64,–,–
–,–,c1ccc2cc(-c3ccnc(N4CCCCC4)n3)ccc2c1 [4-(2-naphthyl)-2-piperidin-1-ylpyrimidine],0.92,1.79,–
30,1.930,"COC(=O)N1CCCN(c2nccc(-c3ccc4ccccc4c3)n2)CC1 [methyl 4-[4-(2-naphthyl)pyrimidin-2-yl]-1,4-diazepane-1-carboxylate]",–,1.88,–
–,2.160,CN(CC1CCN(c2nccc(-c3ccc4ccccc4c3)n2)CC1)C1CCCCC1 [N-methyl-N-({1-[4-(2-naphthyl)pyrimidin-2-yl]piperidin-4-yl}methyl)cyclohexanamine],2.87,0.03,–
–,–,"CN(C)C(=O)N1CCC(N(C)c2nccc(-c3ccc4ccccc4c3)n2)CC1 [N,N-dimethyl-4-{methyl[4-(2-naphthyl)pyrimidin-2-yl]amino}piperidine-1-carboxamide]",1.37,0.68,–
–,–,CCNC(=O)NCCN1CCN(c2nccc(-c3ccc4ccccc4c3)n2)CC1 [N-ethyl-N′-(2-{4-[4-(2-naphthyl)pyrimidin-2-yl]piperazin-1-yl}ethyl)urea],1.09,0.28,–

EC50 [µM],A = MAX FOLD Induction/DMSO CONTROL [fold],SMILES,fold induction at 2 µM [1],fold induction at 20 µM,fold induction at 2 µM (read-out: B = TCF ACTIVITY/DMSO CONTROL Fold induction @ 2.0 uM)
–,2.070,NC(=S)C1CCN(c2nccc(-c3ccc4ccccc4c3)n2)CC1 [1-[4-(2-naphthyl)pyrimidin-2-yl]piperidine-4-carbothioamide],1.74,1.99,–
–,–,NCC1CCN(c2nccc(-c3ccc4cc(O)ccc4c3)n2)CC1 [6-{2-[4-(aminomethyl)piperidin-1-yl]pyrimidin-4-yl}-2-naphthol],1.88,0.015,–
–,–,N[C@@H]1CCN(c2nccc(-c3ccc4ccccc4c3)n2)C1 [(3R)-1-[4-(2-naphthyl)pyrimidin-2-yl]pyrrolidin-3-amine],1.62,0.01,–
–,–,CC(C)(C)NC(=O)[C@@H]1CCCN1c1nccc(-c2ccc3ccccc3c2)n1 [N-tert-butyl-1-[4-(2-naphthyl)pyrimidin-2-yl]-L-prolinamide],1.94,–,–
–,–,O=C(N[C@@H]1CCN(c2nccc(-c3ccc4ccccc4c3)n2)C1)N1CCCC1 [N-{(3R)-1-[4-(2-naphthyl)pyrimidin-2-yl]pyrrolidin-3-yl}pyrrolidine-1-carboxamide],1.41,0.27,–
–,–,"c1ccc2cc(-c3ccnc(N4CCCNCC4)n3)ccc2c1 [1-[4-(2-naphthyl)pyrimidin-2-yl]-1,4-diazepane]",1.36,0.85,–
4.12,3.723,c1ccc2cc(-c3ccnc(NC4CCNCC4)n3)ccc2c1 [4-(2-naphthyl)-N-piperidin-4-ylpyrimidin-2-amine],1.47,1.75,–
–,–,CCOC(=O)N1CC[C@H](Nc2nccc(-c3ccc4ccccc4c3)n2)C1 [ethyl (3S)-3-{[4-(2-naphthyl)pyrimidin-2-yl]amino}pyrrolidine-1-carboxylate],1.28,1.54,–
–,–,"CN(C)C(=O)NCCN1CCN(c2nccc(-c3ccc4ccccc4c3)n2)CC1 [N,N-dimethyl-N′-(2-{4-[4-(2-naphthyl)pyrimidin-2-yl]piperazin-1-yl}ethyl)urea]",1.98,–,–
–,–,CCN(CCO)C(=O)[C@@H]1CCCN1c1nccc(-c2ccc3ccccc3c2)n1 [N-ethyl-N-(2-hydroxyethyl)-1-[4-(2-naphthyl)pyrimidin-2-yl]-L-prolinamide],1.03,1.63,–
–,–,NC(=O)N1CCC(CNc2nccc(-c3ccc4ccccc4c3)n2)CC1 [4-({[4-(2-naphthyl)pyrimidin-2-yl]amino}methyl)piperidine-1-carboxamide],0.88,1.58,–
–,–,"O[C@@H]1CCN([C@@H]2CCN(c3nccc(-c4ccc5ccccc5c4)n3)C2)C1 [(3R,3′R)-1′-[4-(2-naphthyl)pyrimidin-2-yl]-1,3′-bipyrrolidin-3-ol]",–,2.5,–
–,2.440,"CN(C)CCN1CCN(c2nccc(-c3ccc4ccccc4c3)n2)CC1 [N,N-dimethyl-2-{4-[4-(2-naphthyl)pyrimidin-2-yl]piperazin-1-yl}ethanamine]",2.55,0.01,–
–,–,CS(=O)(=O)OCCC1CCN(c2nccc(-c3ccc4ccccc4c3)n2)CC1 [2-{1-[4-(2-naphthyl)pyrimidin-2-yl]piperidin-4-yl}ethyl methanesulfonate],1.02,1.18,–
–,–,O=C(N1CCOCC1)N1CCC(Nc2nccc(-c3ccc4ccccc4c3)n2)CC1 [N-[1-(morpholin-4-ylcarbonyl)piperidin-4-yl]-4-(2-naphthyl)pyrimidin-2-amine],1.03,1.07,–
1.18,2.950,NCC1(O)CCN(c2nccc(-c3ccc4ccccc4c3)n2)CC1 [4-(aminomethyl)-1-[4-(2-naphthyl)pyrimidin-2-yl]piperidin-4-ol],1.6,–,–
–,–,O=C(NCC1CCN(c2nccc(-c3ccc4ccccc4c3)n2)CC1)c1ccccc1 [N-({1-[4-(2-naphthyl)pyrimidin-2-yl]piperidin-4-yl}methyl)benzamide],1.69,–,–
3.3,2.940,CS(=O)(=O)N[C@H]1CC[C@H](Nc2nccc(-c3ccc4ccccc4c3)n2)CC1 [N-(trans-4-{[4-(2-naphthyl)pyrimidin-2-yl]amino}cyclohexyl)methanesulfonamide],1.79,2.38,–
–,–,CC(C)(C)OC(=O)NCC1CN(c2nccc(-c3ccc4ccccc4c3)n2)C1 [tert-butyl ({1-[4-(2-naphthyl)pyrimidin-2-yl]azetidin-3-yl}methyl)carbamate],1.41,0.46,–

SMILES,EC50 [µM],A = MAX FOLD Induction/DMSO CONTROL [fold],fold induction at 2 µM [1],fold induction at 20 µM,fold induction at 2 µM (read-out: B = TCF ACTIVITY/DMSO CONTROL Fold induction @ 2.0 uM)
c1ccc2cc(-c3ccnc(N4CCNCC4)n3)ccc2c1 [4-(2-naphthyl)-2-piperazin-1-ylpyrimidine],–,2.050,–,–,2.64
